We go through 3 compounds from EPA's ToxValDB 9.5.

For data set [1], the system named is Rattus norvegicus. Particulars: oral; for LD50: acute.
The next data set has as its system Canidae. To be noted: subchronic, oral, diet, Beagle.
In data set [2] the test system is Oryctolagus sp. Particulars: acute; dermal.
For data set [3], the system named is Rattus norvegicus. Particulars: oral; for LOAEL / NOAEL: Crl: CD BR.
Data set [4] has as its system Oryctolagus sp. To be noted: duration: 14 days, oral, gavage, New Zealand.
Where [5] appears, read: reproduction developmental, duration: 15 days, diet, Sprague-Dawley.
The mark [6] stands for this setting: subchronic, duration: 90 days, diet.
Where [7] appears, read: developmental, duration: 11 days, gavage, M/F, generation: F1, F1: Developmental: Uterus: Dead Fetuses + F1: Developmental: Uterus: Fetuses, Live + F1: Developmental: Whole Body: Body Weight, Fetal + F1….
The mark [8] stands for this setting: developmental, duration: 11 days, gavage, M/F, Crl:CD(SD) BR, generation: F1, F1: Whole Body: Body Weight, Fetal.
Setting [9] is: reproduction developmental, duration: 11 days, gavage, F, generation: P0, P0: Developmental: Uterus: Implantation + P0: Developmental: Uterus: Resorptions, Early + P0: Developmental: Uterus: Resorptions, Late + P0….
Where [10] appears, read: developmental, M/F, generation: F1, F1: Developmental: Uterus: Dead Fetuses + F1: Developmental: Uterus: Fetuses, Live + F1: Developmental: Whole Body: Body Weight, Fetal + F1….
Setting [11] is: reproduction developmental, F, generation: P0, P0: Developmental: Uterus: Abortions + P0: Developmental: Uterus: Implantation + P0: Developmental: Uterus: Resorptions, Early + P0: ….
The mark [12] stands for this setting: reproduction developmental, F, generation: P0, P0: Uterus: Abortions.
Where [13] appears, read: reproduction developmental, F, generation: P0, P0: Whole Body: Maternal Body Weight Change.

The term LD50 denotes the dose expected to kill half of the subjects tested. Read a high LD50 as lower toxicity. For orientation: LOAEL means the lowest dose or exposure tested at which an adverse effect was seen. What is called NOAEL is the highest dose or exposure tested at which no adverse effect was seen. As for `Cc1cc(C(C)(C)C)c(O)c(C)c1Cn1c(=O)n(Cc2c(C)cc(C(C)(C)C)c(O)c2C)c(=O)n(Cc2c(C)cc(C(C)(C)C)c(O)c2C)c1=O` [Cyanox CY 1790], the LD50 was greater than 10000 mg/kg in the data set on Rattus norvegicus [1] (Wistar) and greater than 5000 mg/kg in the data set with Oryctolagus sp. [2]. The LOAEL in the data set with Rattus norvegicus [1] (setting [5]) stood at 10000 ppm. For the same compound, the NOAEL was found to be 1000 ppm in the data set with Rattus norvegicus [1] (setting [5]); 1000 ppm in the data set on Rattus norvegicus [1] (reproduction developmental, diet, Sprague-Dawley, generation: F0); 20000 ppm with Rattus norvegicus [1] (reproduction developmental, diet, Sprague-Dawley, generation: F1); 400 mg/kg-day in the data set with Rattus norvegicus [1] (subchronic, duration: 90 days, diet, Sprague-Dawley); 46 mg/kg-day in the data set on Canidae (duration: 13 weeks); 400 mg/kg-day with Canidae (duration: 30 days). Moreover, in the data set with Canidae (duration: 90 days), the NOAEL came to 30 mg/kg-day.

Consider `C=CC[N+](C)(C)CC=C.[Cl-]` [Diallyldimethylammonium chloride], for which the LD50 in the data set on Rattus norvegicus [1] (gavage, Sprague-Dawley) amounted to 2520 mg/kg; in the data set on Rattus norvegicus [1] (gavage, Wistar), 3930 mg/kg. Further, the NOAEL with Rattus norvegicus [1] (developmental, duration: 9 days, gavage, Sprague-Dawley) came out at 6 mg/kg-day; with Rattus norvegicus [1] (reproduction developmental, duration: 9 days, gavage, F, Sprague-Dawley), 6 mg/kg-day; in the data set on Rattus norvegicus [1] (reproduction developmental, duration: 133 days, gavage, Sprague-Dawley, generation: F0), 1.25 mg/kg-day; in the data set on Rattus norvegicus [1] (reproduction developmental, duration: 133 days, gavage, Sprague-Dawley, generation: F1), 1.25 mg/kg-day; in the data set on Rattus norvegicus [1] (reproduction developmental, duration: 133 days, gavage, Sprague-Dawley, generation: F2), 1.25 mg/kg-day; with Rattus norvegicus [1] (setting [6]), 50 mg/kg-day. The compound further displayed an NOAEL in the data set on Canidae (duration: 90 days) of 200 mg/kg-day. Moreover, the LOAEL in the data set on Rattus norvegicus [1] (setting [6]) is 500 mg/kg-day; in the data set with Canidae (duration: 90 days), 800 mg/kg-day.

Turning to `CCN(CCO)S(=O)(=O)C(F)(F)C(F)(F)C(F)(F)C(F)(F)C(F)(F)C(F)(F)C(F)(F)C(F)(F)F` [N-Ethyl-N-(2-hydroxyethyl)perfluorooctane sulfonamide], the LOAEL with Rattus norvegicus [3] (setting [7]) amounted to 10 mg/kg-day; in the data set on Rattus norvegicus [3] (setting [9]), 10 mg/kg-day; in the data set on Oryctolagus sp. [4] (setting [10]), 2.5 mg/kg-day; in the data set with Oryctolagus sp. [4] (setting [11]), 2.5 mg/kg-day. The NOAEL worked out at 5 mg/kg-day with Rattus norvegicus [3] (setting [7]); 5 mg/kg-day with Rattus norvegicus [3] (setting [9]); 20 mg/kg-day in the data set with Rattus norvegicus [3] (reproduction developmental, duration: 11 days, gavage, F, generation: P0, P0: Reproductive: Ovary: Corpora Lutea); 1 mg/kg-day in the data set on Oryctolagus sp. [4] (setting [10]); 1 mg/kg-day with Oryctolagus sp. [4] (setting [11]); 3.75 mg/kg-day with Oryctolagus sp. [4] (reproduction developmental, F, generation: P0, P0: Reproductive: Ovary: Corpora Lutea). Moreover, the NEL with Rattus norvegicus [3] (developmental, duration: 11 days, gavage, M/F, Crl:CD(SD) BR, generation: F1, F1: Uterus: Fetuses, Dead + F1: Uterus: Fetuses, Live + F1: Whole Body: Fetal Alterations Count, External Malformations + F1: Whole Body: …) came out at 20 mg/kg-day; in the data set with Rattus norvegicus [3] (setting [8]), 5 mg/kg-day; in the data set with Rattus norvegicus [3] (reproduction developmental, duration: 11 days, gavage, F, Crl:CD(SD) BR, generation: P0, P0: Ovary: Corpora Lutea + P0: Uterus: Implantation + P0: Uterus: Resorptions, Early + P0: Uterus: Resorptions, Late + P0: Whole Body: …), 20 mg/kg-day; with Rattus norvegicus [3] (short-term, duration: 3 weeks, F, Sprague-Dawley, Kidney: Kidney Weight, Absolute + Kidney: Kidney Weight, Relative + Liver: Acyl-CoA Oxidase Activity, Liver + Liver: Catalase (CAT) Activity…), 5 mg/kg-day; with Oryctolagus sp. [4] (developmental, M/F, generation: F1, F1: Uterus: Fetuses, Dead + F1: Uterus: Fetuses, Live + F1: Whole Body: Body Weight, Fetal + F1: Whole Body: Fetal Alterations Count, …), 3.75 mg/kg-day; in the data set with Oryctolagus sp. [4] (reproduction developmental, F, generation: P0, P0: Ovary: Corpora Lutea + P0: Uterus: Implantation + P0: Uterus: Resorptions, Early + P0: Uterus: Resorptions, Late + P0: Whole Body: …), 3.75 mg/kg-day. Moreover, the figures for the NEL in the data set on Oryctolagus sp. [4] (setting [12]) and in the data set with Oryctolagus sp. [4] (setting [13]) were 2.5 mg/kg-day and 1 mg/kg-day, respectively. The LEL in the data set on Rattus norvegicus [3] (setting [8]) was found to be 10 mg/kg-day; in the data set with Rattus norvegicus [3] (short-term, duration: 3 weeks, F, Sprague-Dawley, Liver: Copper Zinc Superoxide Dismutase (CuZnSOD) Activity, Lver + Liver: Liver Weight, Relative + Liver: Manganese Superoxide Dismutase (…) it was 5 mg/kg-day; in the data set with Oryctolagus sp. [4] (setting [12]), 3.75 mg/kg-day; in the data set with Oryctolagus sp. [4] (setting [13]), 2.5 mg/kg-day.
